Source: patent US11497788B2, “Supramolecular glycosaminoglycans” (Northwestern University, priority 2015, dated 2022)

How the values were obtained:
[1] = tested on: ALP and Osteocalcin (OCN) gene expression in C2C12 cells; assay: Quantitative RT-PCR of ALP and Osteocalcin in C2C12 cells; format: cell-based, mouse; settings: relative to heparin or PA nanofibers displaying uncharged GlcNAc; day 3
Method: C2C12 Cell Culture: C2C12 mouse myoblasts (ATCC) were maintained in Dulbecco's Modified Eagle's Medium with high glucose and L-glutamine (DMEM, ATCC), supplemented with 100 U/mL of penicillin and 100 μg/mL streptomycin (P/S, Life Technologies) and 10% heat inactivated FBS (Life Technologies), and passaged at 80-90% confluence. Media was changed every 2 days. Passages 3 to 8 were used for experiments. Cells were grown at 37° C., 5% CO2 in a humidified atmosphere. Cells were detached following a 3 minute incubation at 37° C. with 0.05% Trypsin-EDTA (Life Technologies), then resuspended in DMEM (10% FBS). Unless stated otherwise, cells were seeded at 75,000 cells/mL (400 μL/well in a 48-well plate), and allowed to attach for a minimum of 3 hours prior to experiments.
C2C12 Osteoblast Differentiation: PA samples were thermally annealed as described for Cryo-TEM. […] Cells were cultured for 3 days without changing the media, and osteoblast differentiation was assessed.
Quantitative RT-PCR: The gene expression levels were determined by real-time, reverse-transcription-PCR using an iQ5 Real-Time PCR Detection System (Bio-Rad). […] To confirm the specificity of the amplified products, melting curves were performed by cooling samples at 55° C. for 30 s and then increasing the temperature to 94° C. at 0.5° C./sec with continuous fluorescence measurement. […]

[2] = Zeta potential measurements; format: physicochemical
Method: Zeta Potential Measurements: Zeta (ζ) potential was measured using a Malvern Zetasizer Nano ZS (n=3). PA samples were thermally annealed as described for Cryo-TEM. Following, PAs were diluted to 0.5 mM in DMEM. PA solutions were water-bath sonicated for 1 min prior to zeta potential measurement. Background reading from DMEM alone was subtracted from the final measurements.

Factor Xa = settings: compared to heparin
Method: Anticoagulation Assay: PA 1 was dissolved to 5 mM in saline with 5 mM CaCl2), pH 7.2, thermally annealed at 80° C. for 30 min and slowly cooled to room temperature. The PA solution was spun down, pipetted for homogeneous mixing, and diluted to 0.25, 2.5, 25, and 100 μM in saline with 2 mM CaCl2). The anticoagulant activities of PA 1 and heparin were assessed by monitoring the activity of Factor Xa, a coagulation cascade enzyme inhibited by heparin-activated antithrombin. The assay was performed using the COATEST Heparin Kit (Chromogenix) according to the manufacturer's instructions. Values were represented as the relative bioactivity of Factor Xa when compared to treatment group treated with saline only.

3,4,6S-GlcNAc PA (VVAAEEK) [PA 1]
ALP mRNA expression [1]: higher expressions
osteocalcin mRNA expression [1]: higher expressions
zeta potential / net charge of nanofibers [2]: highest net negative charge
anticoagulation activity (Factor Xa activity) (Factor Xa): minimal anticoagulation activity
